From publication PMC6755732, “Structural, Biochemical, and In Vivo Characterization of MtrR-Mediated Resistance to Innate Antimicrobials by the Human Pathogen Neisseria gonorrhoeae” (Journal of Bacteriology, 2019)
Several values for one entry are separate records, joined by “and”; a condition that tells them apart may be missing. Identical values can stand only once. Like-named read-outs stand apart in the source and are kept apart here. Marks after values point to notes of the source that are not given here.

Experiments:
[1] = molecular target: T1, MtrR (Neisseria gonorrhoeae, UniProt P39897); experiment: Isothermal titration calorimetry, wild-type MtrR with bile salts; assay type: binding; settings: ITC; for Stoichiometry N, WT MtrR: bile salt per MtrR
T1 construct: A codon optimized gene of MtrR was synthesized by GenScript and cloned into the; hexahistidine tag with TEV protease site (N, cleaved yes); made in house
T1 sequence (P39897 whole entry): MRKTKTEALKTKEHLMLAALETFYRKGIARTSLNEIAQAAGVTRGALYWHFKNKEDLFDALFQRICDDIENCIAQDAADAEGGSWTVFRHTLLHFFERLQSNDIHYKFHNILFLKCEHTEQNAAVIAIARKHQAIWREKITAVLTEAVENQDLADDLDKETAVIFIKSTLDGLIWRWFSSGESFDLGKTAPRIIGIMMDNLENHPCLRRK
Experimental: (§1) Purified MtrR was dialyzed extensively against buffer containing 20 mM Tris [pH 8.0], 200 mM NaCl, 10% glycerol, and 1 mM TCEP overnight at 4°C. The stock solutions and the necessary dilutions of the bile salts were prepared using this dialysis buffer. Titrations with 20 μM MtrR in the cell and 250 μM ligand in the syringe were performed using a VP-ITC microcalorimeter (Microcal Inc.). All measurements were conducted at 25°C with a stirring speed of 200 rpm. After subtraction of germane blank data, the titration data were analyzed using the program ORIGIN 5.0.
(§2) Protein purification for Isothermal Titration Calorimetry experiments and mutant […]
(§3) A codon optimized gene of MtrR was synthesized by GenScript and cloned into the pMCSG7 vector in- frame with the N-terminal Hexa- histidine tag and tobacco etch virus (TEV) protease cleavage site. This construct was used as the template for site- directed mutagenesis and to generate wild- type data in supplemental f igures 5-6 and Isothermal Titration Calorimetry data. This protein was overexpressed and purified as described in the “Materials and Methods” of the document, except the he xa -histidine tag MtrR was cleaved by TEV protease following NiNTA affinity chromatography. Cleaved MtrR was purified from tagged MtrR and cleaved hexa- histidine tag by Ni- NTA aff inity chromatography and then further purified by size exclusion chromatography (S200).

[2] = molecular target: T2, MtrR(R176E) (Neisseria gonorrhoeae, UniProt P39897, R176E); experiment: Isothermal titration calorimetry, MtrR(R176E) with bile salts; assay type: binding; settings: ITC
T2 construct: hexahistidine tag with TEV protease site (N, cleaved yes); made in house; host or cells: Rosetta Gami B(DE3) pLysS cells (Novagen)
T2 sequence (P39897 whole entry R176E): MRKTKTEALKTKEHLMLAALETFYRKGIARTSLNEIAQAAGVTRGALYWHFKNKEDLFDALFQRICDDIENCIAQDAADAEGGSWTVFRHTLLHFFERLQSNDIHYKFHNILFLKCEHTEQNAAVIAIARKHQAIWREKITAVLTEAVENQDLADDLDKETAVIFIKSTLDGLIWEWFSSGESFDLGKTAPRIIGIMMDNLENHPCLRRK
Experimental: as §1, §2, §3
Site-directed mutagenesis
To introduce the mutations W 136L, R176A, and R176E, we performed DpnI mediated site-directed mutagenesis. Complementary oligonucleotides containing the desired mutations were obtained from IDT. PCR reactions containing two complementary primers, template DNA, Pfu DNA polymerase buffer, dNTP, and Pfu DNA polymerase were incubated at 95 °C for 30 seconds followed by 18 cycles of 95 °C for […], 55 °C for one minute, and 68 °C for 11 minutes. After cooling the reactions to 4 °C, 10 units of Dpn1 (NEB) was added to each 50 µl reaction and incubated at 37 °C for 3 hours.
The resulting plasmids were used to transform DH5α (Thermo Fisher) cells for plasmid prep. After checking the sequences to ensure the mutations had been incorporated, these plasmids were overexpressed in Rosetta Gami B(DE3) pLysS cells (Novagen)

[3] = molecular target: T3, MtrR(W136L) (Neisseria gonorrhoeae, UniProt P39897, W136L); experiment: Isothermal titration calorimetry, MtrR(W136L) with bile salts; assay type: binding; settings: ITC
T3 construct: hexahistidine tag with TEV protease site (N, cleaved yes); made in house; host or cells: Rosetta Gami B(DE3) pLysS cells (Novagen)
T3 sequence (P39897 whole entry W136L): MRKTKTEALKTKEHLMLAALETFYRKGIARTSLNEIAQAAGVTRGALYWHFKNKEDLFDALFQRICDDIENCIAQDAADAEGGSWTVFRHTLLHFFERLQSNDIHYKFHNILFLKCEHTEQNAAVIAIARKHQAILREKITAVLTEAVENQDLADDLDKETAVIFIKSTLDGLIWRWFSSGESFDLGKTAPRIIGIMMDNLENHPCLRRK
Experimental: as §1, §2
A codon optimized gene of MtrR was synthesized by GenScript and cloned into the pMCSG7 vector in- frame with the N-terminal Hexa- histidine tag and tobacco etch virus (TEV) protease cleavage site. This construct was used as the template for site- directed mutagenesis and to generate wild- type data in supplemental f igures 5-6 and Isothermal Titration Calorimetry data. This protein was overexpressed and purified as described in the “Materials and Methods” of the document, except the he xa -histidine tag MtrR was cleaved by TEV protease following NiNTA affinity chromatography. […]

[4] = molecular target: T4, WT MtrR (Neisseria gonorrhoeae, UniProt P39897); experiment: ITC ligand competition, WT MtrR presaturated with one bile salt and titrated with the second; assay type: binding; settings: WT MtrR (20 μM) preincubated with 20 μM taurodeoxycholate overnight at 4°C
T4 construct: A codon optimized gene of MtrR was synthesized by GenScript and cloned into the; hexahistidine tag with TEV protease site (N, cleaved yes); made in house
T4 sequence (P39897 whole entry): as the sequence (P39897 whole entry) above
Experimental: (A to D) Isothermal titration calorimetry thermograms and resulting binding isotherms for binding reactions between MtrR(R176E) and chenodeoxycholate (A) and taurodeoxycholate (B), as well as between MtrR(W136L) and chenodeoxycholate (C) and taurodeoxycholate (D). (E and F) Isothermal titration calorimetry thermograms and resulting binding isotherms for ligand competition assays. (E) WT MtrR (20 μM) was incubated with 20 μM taurodeoxycholate overnight at 4°C; chenodeoxycholate was titrated into MtrR-TDCA. (F) WT MtrR (20 μM) was incubated with 20 μM chenodeoxycholate overnight at 4°C; taurodeoxycholate was titrated into MtrR-CDCA.
This finding supports the idea that these ligands occupy different binding sites on MtrR and that the binding of taurodeoxycholate occludes, either directly or allosterically, the binding site of chenodeoxycholate. With our current data, we cannot determine the exact binding location of taurodeoxycholate. […]
Purified MtrR was dialyzed extensively against buffer containing 20 mM Tris [pH 8.0], 200 mM NaCl, 10% glycerol, and 1 mM TCEP overnight at 4°C. […] After subtraction of germane blank data, the titration data were analyzed using the program ORIGIN 5.0.

[5] = molecular target: T5, MtrR-mtrCDE promoter (Neisseria gonorrhoeae, UniProt P39897); assay type: biochemical; settings: for Fold increase in Kd: versus no bile salt
T5 construct: nearly all 210 residues of each protomer observed, with the exception of residues 1 through 7; hexahistidine tag (thrombin-cleavable) (cleaved yes); made in house
T5 sequence (P39897 whole entry): as above
Experimental: Thus, to rule out any effect of alkaline pH on MtrR-DNA interactions, we buffered the CAPS used in the FP assay to pH 8.0 before testing its effect on DNA binding.
Fluorescence polarization-based DNA binding experiments were performed with a Panvera Beacon 2000 fluorescence polarization system (Invitrogen) utilizing 5′-fluorescein-labeled DNA. Polarization (P) of such 5′-labeled DNA increases as a function of protein binding, and equilibrium dissociation constants are determined by curve fitting the values of millipolarization (P × 10^−3) units against the protein concentration. To determine the effects of various ligands on MtrR-DNA binding, 1 nM 5′-fluoresceinated oligodeoxynucleotide duplexes containing the mtrC operator site in 1 ml binding buffer (20 mM Tris HCl [pH 8.0], 100 mM NaCl, and 2.5% glycerol) were titrated against increasing concentrations of purified MtrR in the presence or absence of the indicated concentrations of bile salt, and the resulting changes in polarization were measured. All the samples were excited at 490 nm, and their polarized emissions were measured at 530 nm. All the data were plotted using Kaleidagraph (Synergy Software) and Prism (GraphPad Software), and the resulting plots were fitted to the following equation: P = {(Pbound − Pfree)[protein]/(KD + [protein])} + Pfree, where P is the polarization measured at a given protein concentration, Pfree is the initial polarization of the free ligand, Pbound is the maximum polarization of specifically bound ligand, KD is the equilibrium dissociation constant, and [protein] is the protein concentration. Nonlinear least-squares analysis was used to determine Pbound, and Kd. The reported binding constants are the average values from at least three independent experimental measurements.

[6] = molecular target: T6, MtrR-DNA complex (Neisseria gonorrhoeae, UniProt P39897); assay type: biochemical; settings: EMSA, wild-type MtrR, mtrC promoter oligoduplex
T6 construct: nearly all 210 residues of each protomer observed, with the exception of residues 1 through 7; hexahistidine tag (thrombin-cleavable) (cleaved yes); made in house
T6 sequence (P39897 whole entry, one chain of several): as the sequence (P39897 whole entry) above
Experimental: To test the hypothesis that these bile salts directly bind to MtrR and potentially derepress gene expression by interfering with the DNA binding activity of MtrR, MtrR-mtrC promoter interactions were tested in the presence and absence of different concentrations of several bile salts. […] It is important to note that this is a competition assay that, due to its experimental design, requires the use of 3 μM DNA and 4 to 10 μM MtrR dimer. Consequently, this means that ∼99.9% of all DNA is MtrR bound.
Complementary oligodeoxynucleotides containing the MtrR binding site from the mtrC promoter (top strand, 5′-[sequence]-3′; an unusual pseudo-direct repeat is underlined) were annealed by heating an equimolar mixture of the top and bottom strands at 95°C for 5 min, followed by slow cooling to room temperature. Binding reactions were carried out in 20-μl volumes of binding buffer (20 mM Tris [pH 8.0], 200 mM NaCl, 10% glycerol, and 1 mM TCEP) containing 1 μg oligoduplex, 1 μg poly(dI-dC), and 4 to 10 μg MtrR. After a 20-minute incubation at room temperature, the preformed complex was incubated with or without various concentrations of selected bile salts at room temperature for an additional 10 min. […] The gels were stained with ethidium bromide and visualized and analyzed with an Alpha Innotech gel documentation instrument. The intensities of free DNA were measured with ImageJII ([61], [62]).

[7] = molecular target: T7, MtrR(R176A)-mtrCDE operator DNA (Neisseria gonorrhoeae, UniProt P39897, R176A); experiment: Electrophoretic mobility shift assay, induction of MtrR(R176A); assay type: biochemical; settings: EMSA
T7 construct: hexahistidine tag with TEV protease site (N, cleaved yes); made in house; host or cells: Rosetta Gami B(DE3) pLysS cells (Novagen)
T7 sequence (P39897 whole entry R176A): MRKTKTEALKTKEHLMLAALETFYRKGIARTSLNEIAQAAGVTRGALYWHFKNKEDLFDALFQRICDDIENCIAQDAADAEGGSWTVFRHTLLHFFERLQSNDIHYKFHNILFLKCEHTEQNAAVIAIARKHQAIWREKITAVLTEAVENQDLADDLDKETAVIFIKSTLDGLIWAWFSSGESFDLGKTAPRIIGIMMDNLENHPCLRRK
Description: (§4) We hypothesized that the bile salts chenodeoxycholate and taurodeoxycholate occupied the binding pocket in which the CAPS electron density was observed. In our crystal structure, residues R176′ and W136 appear to be potentially important for H bonding and π stacking, respectively, with the ligand (see Fig. S4). Therefore, we generated and purified the single-site mutant MtrR proteins, MtrR(R176A), MtrR(R176E), and MtrR(W136L), to determine the importance of these residues for ligand binding (see the supplemental material) ([40]). First, we determined the capabilities of these single mutants to bind DNA with our FP-based assay. All the mutants were capable of binding the mtrCDE target sequence, with dissociation constants in the nanomolar range and all within 5-fold of the wild-type protein (see Fig. S7A). […] At higher concentrations (5 to 10 mM), taurodeoxycholate induced all three mutants. […]
(§5) Complementary oligodeoxynucleotides containing the MtrR binding site from the mtrC promoter (top strand, 5′-[…]-3′; an unusual pseudo-direct repeat is underlined) were annealed by heating an equimolar mixture of the top and bottom strands at 95°C for 5 min, followed by slow cooling to room temperature. […] The gels were stained with ethidium bromide and visualized and analyzed with an Alpha Innotech gel documentation instrument. The intensities of free DNA were measured with ImageJII ([61], [62]).

[8] = molecular target: T8, MtrR(R176E)-mtrCDE operator DNA (Neisseria gonorrhoeae, UniProt P39897, R176E); experiment: Electrophoretic mobility shift assay, induction of MtrR(R176E); assay type: biochemical; settings: EMSA
T8 construct: hexahistidine tag with TEV protease site (N, cleaved yes); made in house; host or cells: Rosetta Gami B(DE3) pLysS cells (Novagen)
T8 sequence (P39897 whole entry R176E): as the sequence (P39897 whole entry R176E) above
Description: as §4, §5

[9] = molecular target: T9, MtrR(W136L)-mtrCDE operator DNA (Neisseria gonorrhoeae, UniProt P39897, W136L); experiment: Electrophoretic mobility shift assay, induction of MtrR(W136L); assay type: biochemical; settings: EMSA
T9 construct: hexahistidine tag with TEV protease site (N, cleaved yes); made in house; host or cells: Rosetta Gami B(DE3) pLysS cells (Novagen)
T9 sequence (P39897 whole entry W136L): as the sequence (P39897 whole entry W136L) above
Description: as §4, §5

[10] = tested on: mtrCp-lacZ in FA19 (wild type); experiment: β-Galactosidase assay of mtrCp-lacZ fusion, strain FA19; assay type: cell-based, Neisseria gonorrhoeae
Description: (§6) To determine if sublethal concentrations of bile salts could relieve MtrR-mediated repression of mtrC (and, by inference, the mtrCDE operon), a translational fusion of the promoter region of mtrC to lacZ was used. This fusion system was made in the wild-type (FA19) background ([41]) and cloned into mtrR deletion mutant strain JF1. Using the mtrCp-lacZ fusion, the β-galactosidase activity of the strains grown in the presence or absence of the bile salt chenodeoxycholate, taurodeoxycholate, or glycocholate was measured. The β-galactosidase levels were determined from strains grown overnight on GC agar supplemented with the bile salt at concentrations 4-fold below their specific MICs to ensure that the concentration of each bile salt was in the same biological range (the bile salt concentrations are listed in Table 2).
N. gonorrhoeae strains FA19 (wild type) and JF1 (FA19 ΔmtrR) containing a translational mtrCp-lacZ fusion with the proAB locus were used to assess the ability of bile salts to induce mtrC expression; the construction of these strains has been described previously ([41]). The MIC of bile salts for each strain used in the β-galactosidase assay was determined using a 2-fold agar dilution method ([32]). Gonococci were grown overnight on GC agar (Difco Laboratories) supplemented with a bile salt (glycocholate, chenodeoxycholate, or taurodeoxycholate) at concentrations that were 4-fold below the MIC. After overnight growth at 37°C under 3.8% (vol/vol) CO2, the bacteria were scraped from the agar plate, resuspended in 1 ml phosphate-buffered saline (pH 7.4), and lysed by freeze-thawing three times, after which the cell debris was pelleted by centrifugation. The lysate was then used to determine β-galactosidase levels as described previously ([63]). All experiments were performed in triplicate with at least three biological replicates conducted on different days.

[11] = tested on: mtrCp-lacZ in JF1 (FA19 ΔmtrR); assay type: cell-based, Neisseria gonorrhoeae
Description: as §6
N. gonorrhoeae strains FA19 (wild type) and JF1 (FA19 ΔmtrR) containing a translational mtrCp-lacZ fusion with the proAB locus were used to assess the ability of bile salts to induce mtrC expression; the construction of these strains has been described previously ([41]). The MIC of bile salts for each strain used in the β-galactosidase assay was determined using a 2-fold agar dilution method ([32]). […]

## C[C@H](CCC(=O)O)[C@H]1CC[C@H]2[C@@H]3[C@H](O)C[C@@H]4C[C@H](O)CC[C@]4(C)[C@H]3CC[C@]12C [Chenodeoxycholate, chenodeoxycholate]
[1]
  ΔH, WT MtrR: -4.127 ± 0.739 kcal/mol
  ΔS, WT MtrR: 10.85 ± 3.13 cal/mol/deg
  Stoichiometry N, WT MtrR: 0.444 ± 0.097
[1]; 25°C, 20 μM MtrR in cell, 250 μM ligand in syringe, read-out: Kd of bile salt binding to WT MtrR
  Kd: 4.4 µM and ~5 µM
[1]; listed as CDCA
  Stoichiometry N, WT MtrR: ~ 0.5
[1]; listed as chenodeoxycholate
  Stoichiometry N, WT MtrR: one molecule of bile salt per MtrR dimer
[2]
  Stoichiometry N, MtrR(R176E): 0.521 ± 0.038
  ΔH, MtrR(R176E): -12.979 ± 8.228 kcal/mol
  ΔS, MtrR(R176E): -23.00 ± 31.48 cal/mol/deg
[2]; read-out: Kd of bile salt binding to MtrR(R176E)
  Kd: 97 ± 64 µM
[3]
  Kd of bile salt binding to MtrR(W136L): No binding
[4]
  Binding, ligand competition: chenodeoxycholate titrated into MtrR-TDCA: minimal binding
[5]; 1 mM bile salt
  Fold increase in Kd: 8.3
[5]; 1 mM bile salt, listed as chenodeoxycholate
  Fold increase in Kd: 8- to 28
[5]; 5 mM bile salt
  Fold increase in Kd: No binding
[5]; 5 mM bile salt, no bile salt 18 ± 3 nM
  Kd of MtrR-mtrCDE promoter binding in the presence of bile salt: no DNA binding by MtrR was detected
[6]
  Concentration that disrupts the preformed MtrR-DNA complex: 2 to 3 mM
[7]
  Concentration that induces (dissociates from mtrCDE operator DNA) MtrR(R176A): did not induce either MtrR(R176A) or MtrR(R176E) to the same degree as the wild-type protein
[8]
  Concentration that induces (dissociates from mtrCDE operator DNA) MtrR(R176E): did not induce either MtrR(R176A) or MtrR(R176E) to the same degree as the wild-type protein
[9]
  Concentration that induces (dissociates from mtrCDE operator DNA) MtrR(W136L): 5 to 10 mM
[10]; FA19 compared with ΔmtrR strain JF1, sublethal bile salt
  MtrR-dependent derepression of the mtrC promoter: clearly evident
[10]; strain FA19, grown on GC agar with bile salt 4-fold below MIC versus normal agar, mM concentration in parentheses in the cell
  Fold increase of mtrCp-lacZ activity: 5.09 (0.2)
[11]
  Fold increase of mtrCp-lacZ activity: 1.37 (0.2)^b
